# Laboratory results as given in ChEMBL document CHEMBL3991601, “The target landscape of clinical kinase drugs” (Science, 2017).
# Activity calls are given as the source filed them. Cut-off read from the data, not from the text of the source: actives have a measured Kd and inactives only a lower limit.
# Legend:
# Aurora kinase A = molecular target: T1, Aurora kinase A (Homo sapiens, UniProt O14965)
# T1 sequence (O14965 whole entry): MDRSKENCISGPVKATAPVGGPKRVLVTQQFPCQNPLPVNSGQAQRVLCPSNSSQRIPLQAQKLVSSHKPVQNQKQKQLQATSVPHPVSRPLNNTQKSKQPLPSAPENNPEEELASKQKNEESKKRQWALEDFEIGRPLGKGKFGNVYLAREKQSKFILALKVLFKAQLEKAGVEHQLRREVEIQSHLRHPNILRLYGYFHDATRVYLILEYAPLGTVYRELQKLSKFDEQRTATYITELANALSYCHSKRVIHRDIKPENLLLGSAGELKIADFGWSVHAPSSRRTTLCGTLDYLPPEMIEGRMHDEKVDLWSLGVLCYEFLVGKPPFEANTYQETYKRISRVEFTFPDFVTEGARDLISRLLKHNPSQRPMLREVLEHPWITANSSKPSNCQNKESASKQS
# Ephrin type-B receptor 4 = molecular target: T2, Ephrin type-B receptor 4 (Homo sapiens, UniProt P54760)
# T2 sequence (P54760 whole entry): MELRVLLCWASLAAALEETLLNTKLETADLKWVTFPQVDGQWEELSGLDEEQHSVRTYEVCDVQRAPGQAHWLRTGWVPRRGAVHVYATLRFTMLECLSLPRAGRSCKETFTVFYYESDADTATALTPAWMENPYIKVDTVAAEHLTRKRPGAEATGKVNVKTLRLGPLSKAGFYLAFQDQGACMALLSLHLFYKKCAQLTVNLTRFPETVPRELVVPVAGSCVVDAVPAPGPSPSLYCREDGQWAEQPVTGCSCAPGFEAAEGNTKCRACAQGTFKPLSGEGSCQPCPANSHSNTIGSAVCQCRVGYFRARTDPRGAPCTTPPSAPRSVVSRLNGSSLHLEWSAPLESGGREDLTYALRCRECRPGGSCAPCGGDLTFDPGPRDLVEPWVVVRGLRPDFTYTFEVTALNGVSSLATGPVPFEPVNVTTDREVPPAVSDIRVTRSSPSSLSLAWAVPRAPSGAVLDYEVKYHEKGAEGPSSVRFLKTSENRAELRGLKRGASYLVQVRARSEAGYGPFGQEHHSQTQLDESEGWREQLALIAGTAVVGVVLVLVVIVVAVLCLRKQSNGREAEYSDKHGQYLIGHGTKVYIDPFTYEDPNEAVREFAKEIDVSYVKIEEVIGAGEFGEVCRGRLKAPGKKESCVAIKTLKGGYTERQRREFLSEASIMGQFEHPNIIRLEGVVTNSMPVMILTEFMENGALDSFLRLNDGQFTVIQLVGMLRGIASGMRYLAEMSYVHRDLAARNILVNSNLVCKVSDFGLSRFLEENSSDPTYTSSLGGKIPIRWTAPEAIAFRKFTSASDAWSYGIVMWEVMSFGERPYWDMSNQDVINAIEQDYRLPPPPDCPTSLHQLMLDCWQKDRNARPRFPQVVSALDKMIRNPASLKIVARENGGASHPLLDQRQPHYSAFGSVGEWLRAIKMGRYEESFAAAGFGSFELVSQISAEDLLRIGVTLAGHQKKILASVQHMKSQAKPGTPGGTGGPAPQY
# [1] = molecular target: Serine/threonine-protein kinase SIK2 (Homo sapiens, UniProt Q9H0K1)
# [2] = molecular target: T3, Serine/threonine-protein kinase D2 (Homo sapiens, UniProt Q9BZL6)
# T3 sequence (Q9BZL6 whole entry): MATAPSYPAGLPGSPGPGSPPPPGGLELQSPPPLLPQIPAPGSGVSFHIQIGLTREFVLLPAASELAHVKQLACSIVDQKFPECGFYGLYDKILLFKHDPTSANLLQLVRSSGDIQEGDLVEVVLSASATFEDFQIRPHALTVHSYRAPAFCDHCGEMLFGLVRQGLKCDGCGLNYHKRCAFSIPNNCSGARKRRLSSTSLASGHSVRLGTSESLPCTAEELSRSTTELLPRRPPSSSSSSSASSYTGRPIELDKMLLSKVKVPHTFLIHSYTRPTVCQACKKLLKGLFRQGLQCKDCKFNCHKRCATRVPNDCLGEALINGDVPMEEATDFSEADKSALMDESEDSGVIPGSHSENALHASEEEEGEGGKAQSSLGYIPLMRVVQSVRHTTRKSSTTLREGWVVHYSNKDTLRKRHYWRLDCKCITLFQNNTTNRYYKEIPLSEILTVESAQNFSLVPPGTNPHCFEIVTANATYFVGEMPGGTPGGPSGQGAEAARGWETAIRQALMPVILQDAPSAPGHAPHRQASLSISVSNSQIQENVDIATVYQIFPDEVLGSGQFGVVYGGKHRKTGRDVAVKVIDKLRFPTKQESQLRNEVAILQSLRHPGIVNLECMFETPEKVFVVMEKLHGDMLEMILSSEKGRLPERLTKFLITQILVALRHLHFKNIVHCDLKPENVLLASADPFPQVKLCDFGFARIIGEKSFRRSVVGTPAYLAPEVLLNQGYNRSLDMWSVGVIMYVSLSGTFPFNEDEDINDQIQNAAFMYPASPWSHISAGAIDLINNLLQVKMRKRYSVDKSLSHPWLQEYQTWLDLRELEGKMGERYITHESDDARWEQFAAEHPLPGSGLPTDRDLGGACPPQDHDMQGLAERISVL
# Note: in the data inactive means no Kd found up to 30 µM.
# Sequence of Serine/threonine-protein kinase SIK2 (Q9H0K1 whole entry): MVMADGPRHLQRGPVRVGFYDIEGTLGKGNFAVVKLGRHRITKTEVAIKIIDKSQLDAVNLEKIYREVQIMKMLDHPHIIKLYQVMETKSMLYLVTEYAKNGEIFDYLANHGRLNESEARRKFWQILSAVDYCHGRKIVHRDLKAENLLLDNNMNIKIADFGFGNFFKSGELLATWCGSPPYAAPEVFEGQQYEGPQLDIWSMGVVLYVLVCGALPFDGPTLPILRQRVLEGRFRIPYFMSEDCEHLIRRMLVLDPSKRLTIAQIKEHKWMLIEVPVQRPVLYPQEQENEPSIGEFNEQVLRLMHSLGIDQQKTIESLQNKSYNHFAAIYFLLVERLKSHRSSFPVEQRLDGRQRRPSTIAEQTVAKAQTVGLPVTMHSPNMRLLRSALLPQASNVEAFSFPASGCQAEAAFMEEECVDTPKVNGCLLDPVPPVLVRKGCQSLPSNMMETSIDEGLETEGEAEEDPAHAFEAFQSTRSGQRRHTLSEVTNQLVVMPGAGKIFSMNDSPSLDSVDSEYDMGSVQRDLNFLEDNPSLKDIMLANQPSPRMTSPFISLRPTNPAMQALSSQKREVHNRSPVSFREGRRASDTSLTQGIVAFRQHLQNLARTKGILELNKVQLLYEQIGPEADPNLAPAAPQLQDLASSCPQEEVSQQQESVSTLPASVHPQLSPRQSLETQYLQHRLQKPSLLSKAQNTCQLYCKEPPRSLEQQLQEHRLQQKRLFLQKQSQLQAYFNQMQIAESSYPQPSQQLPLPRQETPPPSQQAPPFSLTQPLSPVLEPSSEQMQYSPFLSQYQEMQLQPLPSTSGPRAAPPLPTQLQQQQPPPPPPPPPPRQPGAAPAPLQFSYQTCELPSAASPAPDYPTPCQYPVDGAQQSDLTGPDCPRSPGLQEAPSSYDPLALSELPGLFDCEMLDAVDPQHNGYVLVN
Compound,Kd (Aurora kinase A),Kd (Ephrin type-B receptor 4),Kd [1],Kd [2]
N[C@@H]1CCCN(c2c(/C=C3\SC(=O)NC3=O)cccc2-c2ccccc2)C1,> 30 µM (inactive),> 30 µM (inactive),> 30 µM (inactive),> 30 µM (inactive)
Cc1ccc(S(=O)(=O)Nc2nc3ccccc3nc2Nc2ccc3nsnc3c2)cc1,> 30 µM (inactive),> 30 µM (inactive),> 30 µM (inactive),> 30 µM (inactive)
CN1CC[C@@H](c2c(O)cc(O)c3c(=O)cc(-c4ccccc4Cl)oc23)[C@@H]1CO,> 30 µM (inactive),> 30 µM (inactive),> 30 µM (inactive),> 30 µM (inactive)
Cc1cc(-c2cc(O)ccc2Cl)cc2nnc(Nc3ccc(OCCN4CCCC4)cc3)nc12,> 30 µM (inactive),0.0009 µM (active),0.002 µM (active),0.003 µM (active)
CCN1CCN(Cc2ccc(-c3cc4c(N[C@H](C)c5ccccc5)ncnc4[nH]3)cc2)CC1 [AEE-788],> 30 µM (inactive),26.4 µM (active),41.8 µM (active),> 30 µM (inactive)
Cn1ncc(Cl)c1-c1cc(C(=O)N[C@H](CN)Cc2cccc(F)c2)sc1Cl [AFURESERTIB],> 30 µM (inactive),> 30 µM (inactive),> 30 µM (inactive),3.91 µM (active)
COc1cc(N2CCC(N3CCN(C)CC3)CC2)ccc1Nc1ncnc(Nc2ccccc2S(=O)(=O)C(C)C)n1 [ASP-3026],> 30 µM (inactive),> 30 µM (inactive),0.123 µM (active),2.67 µM (active)
CNS(=O)(=O)Nc1nccc(Cc2c(C)c3ccc(Oc4ncccn4)cc3oc2=O)c1F [AVUTOMETINIB],> 30 µM (inactive),> 30 µM (inactive),> 30 µM (inactive),> 30 µM (inactive)
COc1cc(CCc2cc(NC(=O)c3ccc(N4C[C@@H](C)N[C@@H](C)C4)cc3)n[nH]2)cc(OC)c1 [AZD-4547],,> 30 µM (inactive),> 30 µM (inactive),> 30 µM (inactive)
Cc1cc([C@@H](C)Nc2ccccc2C(=O)O)c2nc(N3CCOCC3)cc(=O)n2c1 [AZD-6482],> 30 µM (inactive),> 30 µM (inactive),> 30 µM (inactive),> 30 µM (inactive)
COc1ccc(-c2ccc3c(N4CCOC[C@@H]4C)nc(N4CCOC[C@@H]4C)nc3n2)cc1CO [AZD-8055],> 30 µM (inactive),> 30 µM (inactive),> 30 µM (inactive),> 30 µM (inactive)
C[C@@H](Nc1cc(F)cc(F)c1)c1cc(C(=O)N(C)C)cc2c(=O)cc(N3CCOCC3)oc12 [AZD-8186],> 30 µM (inactive),> 30 µM (inactive),> 30 µM (inactive),> 30 µM (inactive)
Cc1ccc(NC(=O)c2ccc(CN3CC[C@H](N(C)C)C3)c(C(F)(F)F)c2)cc1Nc1nccc(-c2cncnc2)n1 [BAFETINIB],> 30 µM (inactive),1.3 µM (active),> 30 µM (inactive),> 30 µM (inactive)
CCS(=O)(=O)N1CC(CC#N)(n2cc(-c3ncnc4[nH]ccc34)cn2)C1 [BARICITINIB],> 30 µM (inactive),> 30 µM (inactive),> 30 µM (inactive),> 30 µM (inactive)
Cc1cc2c(F)c(Oc3ncnn4cc(OC[C@@H](C)OC(=O)[C@H](C)N)c(C)c34)ccc2[nH]1 [BRIVANIB ALANINATE],> 30 µM (inactive),> 30 µM (inactive),> 30 µM (inactive),> 30 µM (inactive)
CNC(=O)c1ccc(-c2cnc3ncc(Cc4ccc5ncccc5c4)n3n2)cc1F [CAPMATINIB],> 30 µM (inactive),> 30 µM (inactive),> 30 µM (inactive),> 30 µM (inactive)
O=C(c1ccc(F)c(F)c1Nc1ccc(I)cc1F)N1CC(O)([C@@H]2CCCCN2)C1 [COBIMETINIB],> 30 µM (inactive),> 30 µM (inactive),> 30 µM (inactive),> 30 µM (inactive)
Cc1nc(N)sc1-c1ccnc(Nc2ccc(N3CCOCC3)cc2)n1 [CYC-116],,4.61 µM (active),1.4 µM (active),
CCc1cnn2c(NCc3ccc[n+]([O-])c3)cc(N3CCCC[C@H]3CCO)nc12 [DINACICLIB],,> 30 µM (inactive),> 30 µM (inactive),> 30 µM (inactive)
COC(=O)N[C@@H](C)CNc1nccc(-c2cn(C(C)C)nc2-c2cc(Cl)cc(NS(C)(=O)=O)c2F)n1 [ENCORAFENIB],> 30 µM (inactive),> 30 µM (inactive),> 30 µM (inactive),> 30 µM (inactive)
Cc1cc(Nc2cc(N3CCN(C)CC3)nc(/C=C/c3ccccc3)n2)n[nH]1 [ENMD-2076],,> 30 µM (inactive),> 30 µM (inactive),
CO[C@H]1C[C@@H]2CC[C@@H](C)[C@@](O)(O2)C(=O)C(=O)N2CCCC[C@H]2C(=O)O[C@H]([C@H](C)C[C@@H]2CC[C@@H](OCCO)[C@H](OC)C2)CC(=O)[C@H](C)/C=C(\C)[C@@H](O)[C@@H](OC)C(=O)[C@H](C)C[C@H](C)/C=C/C=C/C=C/1C [EVEROLIMUS],> 30 µM (inactive),> 30 µM (inactive),> 30 µM (inactive),> 30 µM (inactive)
COCCNCc1ccc(-c2cc3nccc(Oc4ccc(NC(=S)NC(=O)Cc5ccc(F)cc5)cc4F)c3s2)nc1 [GLESATINIB],> 30 µM (inactive),> 30 µM (inactive),> 30 µM (inactive),> 30 µM (inactive)
O=C1NC(=O)/C(=C/c2ccc3nccc(-c4ccncc4)c3c2)S1 [GSK-1059615],> 30 µM (inactive),> 30 µM (inactive),> 30 µM (inactive),> 30 µM (inactive)
CC[C@H](Nc1ncnc2[nH]cnc12)c1nc2cccc(F)c2c(=O)n1-c1ccccc1 [IDELALISIB],> 30 µM (inactive),> 30 µM (inactive),> 30 µM (inactive),> 30 µM (inactive)
COc1cc2nccc(Oc3ccc(NC(=O)NC4CC4)c(Cl)c3)c2cc1C(N)=O [LENVATINIB],,> 30 µM (inactive),> 30 µM (inactive),> 30 µM (inactive)
O=C(O)[C@]1(Cc2cccc(Nc3nccs3)n2)CC[C@@H](Oc2cccc(Cl)c2F)CC1 [MK-5108],,> 30 µM (inactive),> 30 µM (inactive),> 30 µM (inactive)
OCCn1cc(-c2cnc3nnn(Cc4ccc5ncccc5c4)c3n2)cn1 [PF-04217903],,> 30 µM (inactive),> 30 µM (inactive),> 30 µM (inactive)
O=C(Nc1cccc(Cl)c1)Nc1ncc(CCNc2ncnc3ccsc23)s1 [SNS-314],,> 30 µM (inactive),> 30 µM (inactive),
COc1cc2nccc(Oc3ccc(NC(=O)Nc4cc(C)on4)c(Cl)c3)c2cc1OC [TIVOZANIB],> 30 µM (inactive),,> 30 µM (inactive),> 30 µM (inactive)
